Laboratory results from patent publication US11382956B2, “Amylin analogues” (Zealand Pharma A/S, priority 2016, dated 2022).
pEC50: −log10 of the molar value. Numbered stars: 1 amine (or outer) side, 2 acyl side, 3 side chain; on linkers, the order of the positions; unused ones are H or OH. Bridge positions count the residues as written; N and C are the ends. Square brackets hold non-standard residues; d marks the D form. Peptide text beside a SMILES is read from it. * marks the point of attachment. C20 diacid = O=C(O)CCCCCCCCCCCCCCCCCCC(=O)*; γGlu = O=C(O)[C@H](CCC(=O)[*:2])N[*:1]; Hyp = O=C(O)[C@@H]1C[C@@H](O)CN1; NMeI = CC[C@H](C)[C@H](NC)C(=O)O; Orn = NCCC[C@H](N)C(=O)O; Sar = CNCC(=O)O

Assays:
[1] = Assessment of physical stability: fibril formation by Thioflavin T fluorescence; assay type: physicochemical; design: key: FND = fibrillation not detected; FD = fibrillation detected; settings: 1 mg/mL peptide; for Fibrillation (in buffer) pH4 acetate: 50 mM acetate buffer pH 4.0, 96 hours at 40° C.; for Fibrillation (in buffer) pH7 histidine: 50 mM histidine buffer pH 7.0, 96 hours at 40° C.; for Fibrillation (in buffer) pH7 phosphate: 50 mM phosphate buffer pH 7.0, 96 hours at 40° C.
Experimental: Solutions containing (i) 1 mg/mL of test peptide, 40 μM ThT and 50 mM phosphate (Ph) buffer (pH 7.0), (ii) 1 mg/mL of test peptide, 40 μM ThT and 50 mM histidine (His) buffer (pH 7.0), and (iii) 1 mg/mL of test peptide, 40 μM ThT and 50 mM acetate (Ac) buffer (pH 4.0), were loaded in a 96-well black fluorescence plate (clear bottom) in triplicate. Data were collected at fixed intervals of 10 min, each preceded by 300 s of automixing (agitation), over a period of 96 hours at 40° C. Physical stability is determined by measuring the fluorescence intensity over time. A significant increase in intensity is rated as fibrillation detected (FD).

[2] = molecular target: T1, recombinant human calcitonin receptor (hCT-R) (Homo sapiens, UniProt P30988); assay: hCT-R cAMP assay (AlphaScreen) in 1321N1 cells; assay type: cell-based; settings: cAMP formation, 45 min stimulation
T1 construct: host or cells: human astrocytoma cell line 1321N1
T1 sequence (P30988 25-474): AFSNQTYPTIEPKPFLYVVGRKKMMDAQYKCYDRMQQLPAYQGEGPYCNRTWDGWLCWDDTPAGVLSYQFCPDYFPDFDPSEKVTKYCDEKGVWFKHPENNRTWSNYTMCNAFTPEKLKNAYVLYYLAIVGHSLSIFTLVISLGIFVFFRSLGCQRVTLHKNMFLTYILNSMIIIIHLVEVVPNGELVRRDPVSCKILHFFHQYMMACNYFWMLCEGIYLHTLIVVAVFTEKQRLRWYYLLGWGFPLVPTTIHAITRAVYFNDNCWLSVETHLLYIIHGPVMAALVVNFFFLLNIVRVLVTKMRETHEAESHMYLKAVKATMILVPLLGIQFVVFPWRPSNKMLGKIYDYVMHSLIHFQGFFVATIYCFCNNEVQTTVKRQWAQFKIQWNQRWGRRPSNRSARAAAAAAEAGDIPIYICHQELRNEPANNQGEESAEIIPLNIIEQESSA
Procedure, shortened: (§1)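 1321N1 astrocytoma cells expressing recombinant human calcitonin receptor alone or with RAMP3 (AMY3) stimulated 45 min at room temperature with peptide in IBMX-containing buffer. cAMP quantified by AlphaScreen after 1 h bead incubation; EC50 fitted from at least 7 concentrations.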

[3] = molecular target: T2, recombinant human amylin 3 receptor (hAMYR3) (Homo sapiens, UniProt O60896+P30988); assay: hAMYR3 cAMP assay (AlphaScreen) in 1321N1 cells; assay type: cell-based; settings: cAMP formation, 45 min stimulation
T2 construct: host or cells: human astrocytoma cell line 1321N1
T2 sequence (P30988 25-474): T1 sequence (P30988 25-474)
T2 sequence (O60896 24-148 partner): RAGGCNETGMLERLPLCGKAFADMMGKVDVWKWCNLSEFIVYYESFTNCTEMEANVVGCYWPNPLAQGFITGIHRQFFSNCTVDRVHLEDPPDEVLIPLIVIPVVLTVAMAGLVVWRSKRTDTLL
Procedure, shortened: as §1

[4] = Assessment of chemical stability in 40 mM buffers at 40° C. (RP-HPLC); assay type: physicochemical; settings: 1 mg/mL
Experimental: Samples of each test peptide were dissolved in acetate buffer pH 4 and phosphate buffer pH 6 and 7 (all buffer 40 mM). The final peptide concentration was 1 mg/mL. Samples were placed in glass vials and incubated at 40° C. The samples were analyzed by RP-HPLC on a C8 column with gradient elution using a trifluoroacetic acid/acetonitrile/water eluent system. The area-percentage (area-%) of the main peak was determined by UV spectroscopy at 220 nm at each sampling time point.
The % degradation was calculated by subtracting the […].
The results of the chemical stability assessment after 3 days of incubation time are summarized as % degradation in Table 1 (below).
The results of the chemical stability assessment after 14 days of incubation time are summarized as % degradation in Table 2 (below).

Fibrillation (in buffer) pH4 acetate [1] | Fibrillation (in buffer) pH7 histidine [1] | Fibrillation (in buffer) pH7 phosphate [1] | pEC50 [2] | pEC50 [3] | % degradation after 72 h at 40° C. pH4 acetate ([4]; acetate buffer pH 4, 72 h) [%] | % degradation after 72 h at 40° C. pH6 phosphate ([4]; phosphate buffer pH 6, 72 h) [%] | % degradation after 72 h at 40° C. pH7 phosphate ([4]; phosphate buffer pH 7, 72 h) [%] | SMILES
FND | FND | FND | 9.89 | 10.23 | <1 | <1 | <1 | CC[C@H](C)[C@@H](C(=O)N[C@@H](CC(C)C)C(=O)N[C@@H](CO)C(=O)N[C@@H](CO)C(=O)N[C@H](C(=O)N[C@@H](CCC(=O)O)C(=O)N[C@H](C(=O)NCC(=O)N[C@@H](CO)C(=O)N[C@@H](CC(N)=O)C(=O)N[C@H](C(=O)N1C[C@H](O)C[C@H]1C(N)=O)[C@@H](C)O)C(C)C)[C@@H](C)O)N(C)C(=O)[C@H](C)NC(=O)CN(C)C(=O)[C@H](Cc1ccccc1)NC(=O)[C@H](CO)NC(=O)[C@H](CO)NC(=O)[C@H](CCCNC(=N)N)NC(=O)[C@H](CCC(N)=O)NC(=O)[C@H](CC(C)C)NC(=O)[C@H](Cc1ccccc1)NC(=O)[C@H](Cc1c[nH]cn1)NC(=O)[C@H](C)NC(=O)[C@H](CC(C)C)NC(=O)[C@H](CCCNC(=N)N)NC(=O)[C@H](CCC(N)=O)NC(=O)[C@@H](NC(=O)[C@H](C)NC(=O)[C@@H]1CCCNC(=O)C[C@H](NC(=O)[C@H](CCCNC(=N)N)NC(=O)CC[C@H](NC(=O)CCCCCCCCCCCCCCCCCCC(=O)O)C(=O)O)C(=O)NCC(=O)N[C@@H]([C@@H](C)O)C(=O)N[C@@H](C)C(=O)N[C@@H]([C@@H](C)O)C(=O)N1)[C@@H](C)O [Compound 8, [19CD]-isoGlu-RD()GTAT-Orn()-ATQRLAHFLQRSSF-Gly(Me)-A-Ile(Me)-LSSTEVGSNT-Hyp-NH2] ({C20 diacid-γGlu}-RDGTAT[Orn]ATQRLAHFLQRSSF[Sar]A[NMeI]LSSTEVGSNT[Hyp]-NH2; lactam 2-7)
FD | FND | FND | 10.70 | 11.05 |  |  |  | CC[C@H](C)[C@@H](C(=O)N[C@@H](CC(C)C)C(=O)N[C@@H](CO)C(=O)N[C@@H](CO)C(=O)N[C@H](C(=O)N[C@@H](CCC(=O)O)C(=O)N[C@H](C(=O)NCC(=O)N[C@@H](CO)C(=O)N[C@@H](CC(N)=O)C(=O)N[C@H](C(=O)N1C[C@H](O)C[C@H]1C(N)=O)[C@@H](C)O)[C@@H](C)O)[C@@H](C)O)N(C)C(=O)[C@H](C)NC(=O)CN(C)C(=O)[C@H](Cc1ccccc1)NC(=O)[C@H](CO)NC(=O)[C@H](CO)NC(=O)[C@H](CCCNC(=N)N)NC(=O)[C@H](CCC(N)=O)NC(=O)[C@H](CC(C)C)NC(=O)[C@H](Cc1ccccc1)NC(=O)[C@H](CC(N)=O)NC(=O)[C@H](C)NC(=O)[C@H](CC(C)C)NC(=O)[C@H](CCCNC(=N)N)NC(=O)[C@H](CCC(N)=O)NC(=O)[C@@H](NC(=O)[C@H](C)NC(=O)[C@@H]1CCCCNC(=O)C[C@H](NC(=O)[C@H](CCCCN)NC(=O)CC[C@H](NC(=O)CCCCCCCCCCCCCCCCCCC(=O)O)C(=O)O)C(=O)NCC(=O)N[C@@H]([C@@H](C)O)C(=O)N[C@@H](C)C(=O)N[C@@H]([C@@H](C)O)C(=O)N1)[C@@H](C)O [Compound 44, [19CD]-isoGlu-KD()GTATK()ATQRLANFLQRSSF-Gly(Me)-A-Ile(Me)-LSSTETGSNT-Hyp-NH2] ({C20 diacid-γGlu}-KDGTATKATQRLANFLQRSSF[Sar]A[NMeI]LSSTETGSNT[Hyp]-NH2; lactam 2-7)
